Experimental data reported in patent publication US9856279B2 (AGIOS PHARMACEUTICALS, INC, priority 2011, dated 2018).
Like-named read-outs stand apart in the source and are kept apart here.

Columns and labels:
[1] = target: IDH1 R132H (Homo sapiens, UniProt O75874, R132H); test: Assay for IDH1 R132H inhibitors (NADPH/aKG, resazurin detection); type: biochemical; details: enzyme assay of Example 12; read-out: IDH1R132H IC50
Procedure, shortened: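 Compound added to substrate mix (8 uM NADPH, 2 mM aKG), then enzyme mix (0.2 μg/ml IDH1 R132H); 50 min RT in 20 mM Tris pH 7.5, 150 mM NaCl, 10 mM MgCl2, 0.03% BSA. Resazurin detection mix (30 μM) 5 min RT; resorufin fluorescence Ex544/Em590.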

[2] = system: HT1080 cells; test: Cellular assay for IDH1m inhibitors: inhibition of 2-HG production (LC-MS, 48 hours) in HT1080 cells; type: cell-based; details: Homo sapiens
Procedure, shortened: (§1)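 Each cell line is plated at 5000 cells/well in DMEM with 10% FBS and left overnight at 37 °C. Test compounds are then added for 48 h, after which 2-HG in the medium is determined by LC-MS; IC50 reflects 50% reduction compared with control.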

[3] = system: U87MG cells; test: Cellular assay for IDH1m inhibitors: inhibition of 2-HG production (LC-MS, 48 hours) in U87MG cells; type: cell-based; details: Homo sapiens, U-87 MG
Procedure, shortened: as §1

[4] = HT-1080, inhibition of 2-HG production, HT1080 cells, read-out: HT1080 IC50
[5] = inhibition of 2-HG production, U87R132H cells, read-out: U87R132H IC50

Chain of IDH1 R132H (O75874 whole entry R132H): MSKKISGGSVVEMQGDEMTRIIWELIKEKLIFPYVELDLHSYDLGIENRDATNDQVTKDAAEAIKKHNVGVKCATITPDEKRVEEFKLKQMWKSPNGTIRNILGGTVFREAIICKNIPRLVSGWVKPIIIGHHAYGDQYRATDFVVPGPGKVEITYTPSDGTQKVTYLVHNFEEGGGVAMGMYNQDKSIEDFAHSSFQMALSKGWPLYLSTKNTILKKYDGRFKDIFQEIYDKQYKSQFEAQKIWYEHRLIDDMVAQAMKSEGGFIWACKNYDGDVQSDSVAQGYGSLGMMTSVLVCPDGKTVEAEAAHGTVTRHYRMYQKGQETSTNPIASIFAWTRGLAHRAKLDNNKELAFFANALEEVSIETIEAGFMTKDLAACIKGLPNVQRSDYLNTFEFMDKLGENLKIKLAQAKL

Compound | IC50 [1] [nM] | IC50 [2, 4] [µM] | IC50 [3, 5] [µM] | IC50 ([2]; HT-1080, read-out: HT1080 IC50 (μM)) [µM] | IC50 ([3]; read-out: U87R132H IC50 (μM)) [µM]
COCCC(=O)N1CCN(c2nc(C3CC3)c(OCc3ccccn3)cc2C#N)C[C@H]1C [Compound 279, (R)-6-cyclopropyl-2-(4-(3-methoxypropanoyl)-3-methylpiperazin-1-yl)-5-(pyridin-2-ylmethoxy)nicotinonitrile] | 500 to 1000 | 1 to 10 | 1 to 10 | – | –
C=Cc1cc(-c2cc(C#N)c(N3CCN(C(=O)CCOP(=O)(O)O)[C@H](C4CC4)C3)nc2C2CC2)ccn1 [Compound 810, Sodium (R)-3-(4-(5-cyano-2-cyclopropyl-2′-vinyl-[3,4′-bipyridin]-6-yl)-2-cyclopropylpiperazin-1-yl)-3-oxopropyl phosphate] | 500 to 1000 | – | – | < 0.5 | < 0.5
C/C=C/C(=O)Nc1cccc(COc2cc(C#N)c(N3CCN(C(=O)CCOC)[C@H](C)C3)nc2C2CC2)c1 [Compound 400, (R,E)-N-(3-((5-cyano-2-cyclopropyl-6-(4-(3-methoxypropanoyl)-3-methylpiperazin-1-yl)pyridin-3-yloxy)methyl)phenyl)but-2-enamide] | 500 to 1000 | 1 to 10 | 1 to 10 | – | –
C=Cc1ncc2c(-c3cc(C#N)c(N4CCN(C(=O)CCOC)[C@H](C)C4)nc3C3CC3)cccc2n1 [Compound 603, (R)-6-cyclopropyl-2-(4-(3-methoxypropanoyl)-3-methylpiperazin-1-yl)-5-(2-vinylquinazolin-5-yl)nicotinonitrile] | < 500 | < 0.5 | < 0.5 | – | –
C=Cc1cc(Oc2c(C3CC3)nc(N3CCN(C(=O)CCO)[C@H](C4CC4)C3)c(C#N)c2C)ccn1 [Compound 777, (R)-6-cyclopropyl-2-(3-cyclopropyl-4-(3-hydroxypropanoyl)piperazin-1-yl)-4-methyl-5-((2-vinylpyridin-4-yl)oxy)nicotinonitrile] | < 500 | < 0.5 | < 0.5 | – | –
COCCC(=O)N1CCN(c2nc(C3CC3)c(-c3cccc(N4CC=CC4=O)c3)cc2C#N)C[C@H]1C [Compound 459, (R)-6-cyclopropyl-2-(4-(3-methoxypropanoyl)-3-methylpiperazin-1-yl)-5-(3-(2-oxo-2,5-dihydro-1H-pyrrol-1-yl)phenyl)nicotinonitrile] | < 500 | < 0.5 | < 0.5 | – | –
COCCC(=O)N1CCN(c2nc(C3CC3)c(OC(C)c3ccccc3)cc2C#N)C[C@H]1C (stereo partly drawn) [Compound 277, 6-cyclopropyl-2-((R)-4-(3-methoxypropanoyl)-3-methylpiperazin-1-yl)-5-(1-phenylethoxy)nicotinonitrile] | < 500 | 1 to 10 | 1 to 10 | – | –
C=Cc1cc(-c2c(C3CC3)nc(N3CCN(C(=O)CCCOC)[C@H](C(C)C)C3)c(C#N)c2C)ccn1 [Compound 788, (R)-2-cyclopropyl-6-(3-isopropyl-4-(4-methoxybutanoyl)piperazin-1-yl)-4-methyl-2′-vinyl-3,4′-bipyridine-5-carbonitrile] | < 500 | < 0.5 | < 0.5 | – | –
C=Cc1ccc2c(-c3cc(C#N)c(N4CCN(C(=O)C5CC5)[C@H](C5CC5)C4)nc3C3CC3)cccc2n1 [Compound 475, (R)-2-(4-(cyclopropanecarbonyl)-3-cyclopropylpiperazin-1-yl)-6-cyclopropyl-5-(2-vinylquinolin-5-yl)nicotinonitrile] | < 500 | 0.5 to 1 | < 0.5 | – | –
N#Cc1cc(-c2cccc3c(O)nccc23)c(C2CC2)nc1N1CCN(C(=O)CC(F)(F)F)[C@H](C2CC2)C1 [Compound 547, (R)-6-cyclopropyl-2-(3-cyclopropyl-4-(3,3,3-trifluoropropanoyl)piperazin-1-yl)-5-(1-hydroxyisoquinolin-5-yl)nicotinonitrile] | < 500 | < 0.5 | < 0.5 | – | –
C=Cc1cc(-c2cc(C#N)c(N3CCN(C(=O)CCO)[C@H](C4CC4)C3)nc2C2CC2)c2ccncc2n1 [Compound 688, (R)-6-cyclopropyl-2-(3-cyclopropyl-4-(3-hydroxypropanoyl)piperazin-1-yl)-5-(2-vinyl-1,7-naphthyridin-4-yl)nicotinonitrile] | < 500 | < 0.5 | < 0.5 | – | –

Second part, led by results:

IC50 [1] [nM] | IC50 [2, 4] [µM] | IC50 [3, 5] [µM] | Compound | IC50 ([2]; HT-1080, read-out: HT1080 IC50 (μM)) [µM] | IC50 ([3]; read-out: U87R132H IC50 (μM)) [µM]
< 500 | 0.5 to 1 | 0.5 to 1 | COCCC(=O)N1CCN(c2nc(C3CC3)c(-c3ccc4c(c3)CC(=O)N4)cc2C#N)C[C@H]1C [Compound 384, (R)-6-cyclopropyl-2-(4-(3-methoxypropanoyl)-3-methylpiperazin-1-yl)-5-(2-oxoindolin-5-yl)nicotinonitrile] | – | –
< 500 | < 0.5 | < 0.5 | COCCC(=O)N1CCN(c2nc(C3CC3)c(-c3ccc(CNS(C)(=O)=O)cc3)c(C)c2C#N)C[C@H]1C [Compound 330, (R)—N-(4-{5-cyano-2-cyclopropyl-6-[4-(3-methoxy-propionyl)-3-methyl-piperazin-1-yl]-4-methyl-pyridin-3-yl}-benzyl)-methanesulfonamide] | – | –
< 500 | < 0.5 | < 0.5 | C=Cc1cc(-c2c(C3CC3)nc(N3CCN(C(=O)CCC4CCO4)[C@H](C4CC4)C3)c(C#N)c2C)ccn1 (stereo partly drawn) [Compound 803, 2-cyclopropyl-6-((3R)-3-cyclopropyl-4-(3-(oxetan-2-yl)propanoyl)piperazin-1-yl)-4-methyl-2′-vinyl-[3,4′-bipyridine]-5-carbonitrile] | – | –
< 500 | 1 to 10 | 1 to 10 | COCCC(=O)N1CCN(c2nc(C3CC3)c(-c3ccc(C)c(F)c3)c(C)c2C#N)C[C@H]1C [Compound 266, (R)-6-cyclopropyl-5-(3-fluoro-4-methylphenyl)-2-(4-(3-methoxypropanoyl)-3-methylpiperazin-1-yl)-4-methylnicotinonitrile] | – | –
< 500 | < 0.5 | < 0.5 | C=Cc1cc(-c2cc(C#N)c(N3CCN(C(=O)CCOC)[C@H](C)C3)nc2C2CC2)ncn1 [Compound 597, (R)-6-cyclopropyl-2-(4-(3-methoxypropanoyl)-3-methylpiperazin-1-yl)-5-(6-vinylpyrimidin-4-yl)nicotinonitrile] | – | –
< 500 | < 0.5 | < 0.5 | COCCC(=O)N1CCN(c2nc(C3CC3)c(Oc3ccnc(Cl)c3)cc2C#N)C[C@H]1C1CC1 [Compound 695, (R)-5-((2-chloropyridin-4-yl)oxy)-6-cyclopropyl-2-(3-cyclopropyl-4-(3-methoxypropanoyl)piperazin-1-yl)nicotinonitrile] | – | –
< 500 | < 0.5 | < 0.5 | C=Cc1cc(-c2cc(C#N)c(N3CCN(C(=O)CCOC)[C@H](C)C3)nc2C2CC2)c2ccncc2n1 [Compound 580, (R)-6-cyclopropyl-2-(4-(3-methoxypropanoyl)-3-methylpiperazin-1-yl)-5-(2-vinyl-1,7-naphthyridin-4-yl)nicotinonitrile] | – | –
< 500 | < 0.5 | < 0.5 | C=Cc1cc(Nc2c(C3CC3)nc(N3CCN(C(=O)CCO)[C@H](C4CC4)C3)c(C#N)c2C)ccn1 [Compound 742, (R)-6-cyclopropyl-2-(3-cyclopropyl-4-(3-hydroxypropanoyl)piperazin-1-yl)-4-methyl-5-(2-vinylpyridin-4-ylamino)nicotinonitrile] | – | –
